These results are taken from PubChem BioAssay (NCI).

As usually defined, the TGI is the concentration giving total growth inhibition. A low value points to greater sensitivity of the cells.

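Where inhibition never reached the appropriate level, the endpoint shown equals the highest concentration tested. Otherwise, values were interpolated linearly from a five-concentration, 48-hour dose response in 96-well plates. TGI: concentration producing complete growth inhibition.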

Among the test systems are A549 NSCLC; CAKI-1 renal; HOP-92 NSCLC; IGROV1 ovarian; KM12 colon; NCI-H23 lung; OVCAR-3 ovarian; OVCAR-8 ovarian; PC-3 prostate; RPMI-8226 leukemia; RXF 393 renal; SF-295 CNS; SK-MEL-5 melanoma; SR leukemia; UACC-257 melanoma.
Assay in all cases: DTP human tumour cell line panel, 48 h

Regarding `Nc1cccc(OCc2nc(N)nc(N)c2-c2ccc(Cl)cc2)c1`, the TGI with A549 NSCLC, in the assay on CAKI-1 renal, in the assay with HOP-92 NSCLC, in the assay with IGROV1 ovarian, with KM12 colon and in the assay on NCI-H23 lung was greater than 100 µM in each case. The TGI in the assay on OVCAR-3 ovarian, in the assay on OVCAR-8 ovarian, with PC-3 prostate, with RPMI-8226 leukemia, with RXF 393 renal and with SF-295 CNS was greater than 100 µM throughout. Further, the TGI with SK-MEL-5 melanoma, in the assay on SR leukemia and with UACC-257 melanoma was greater than 100 µM in each case.
On to `C=CCn1c(=O)c(C)cn(/C(=C/C(=O)OCC)C(=O)OCC)c1=O`, for which the TGI in the assay on A549 NSCLC came to 87.5 µM; in the assay on CAKI-1 renal, 3.65 µM; in the assay with HOP-92 NSCLC it was 17.2 µM; with IGROV1 ovarian, 31.4 µM; in the assay on KM12 colon, 36 µM; in the assay on NCI-H23 lung it was 31.8 µM. The TGI in the assay with OVCAR-3 ovarian is 23.3 µM; with OVCAR-8 ovarian it was 45.9 µM; in the assay on PC-3 prostate, 28.9 µM; in the assay with RPMI-8226 leukemia, 39.5 µM; with RXF 393 renal it was 28.2 µM; in the assay on SF-295 CNS, greater than 100 µM. Also, the TGI in the assay on SK-MEL-5 melanoma turned out to be 36.3 µM; in the assay with SR leukemia, 13.3 µM; in the assay with UACC-257 melanoma it was 55.5 µM.
`CC(C)[Si](OC1=CCCCCC12C(=O)N(C)c1ccccc12)(C(C)C)C(C)C` (stereo not given): the TGI in the assay with A549 NSCLC was determined as 48.8 µM; in the assay on CAKI-1 renal, 40.7 µM; in the assay on HOP-92 NSCLC it was 30.8 µM; with IGROV1 ovarian, 62.9 µM; with KM12 colon, 38 µM; in the assay with NCI-H23 lung it was 46.1 µM. Further, the TGI is 31.8 µM with OVCAR-3 ovarian; 44.6 µM in the assay with OVCAR-8 ovarian; greater than 100 µM in the assay with PC-3 prostate; 36.5 µM in the assay on RPMI-8226 leukemia; 21.8 µM with RXF 393 renal; 28.6 µM in the assay on SF-295 CNS. The TGI with SK-MEL-5 melanoma turned out to be 33.8 µM; in the assay on SR leukemia it was 67.3 µM; with UACC-257 melanoma, 45.8 µM.
For `CCC1(C)N=C(C(N)=O)c2ncn(N=C(C)C)c2N1` (stereo not given), the TGI in the assay on A549 NSCLC, in the assay with CAKI-1 renal, with HOP-92 NSCLC, with IGROV1 ovarian, in the assay on KM12 colon and in the assay with NCI-H23 lung was greater than 100 µM each time. Also, the TGI with OVCAR-3 ovarian, with OVCAR-8 ovarian, in the assay on PC-3 prostate, with RPMI-8226 leukemia, in the assay on RXF 393 renal and in the assay with SF-295 CNS was greater than 100 µM throughout. In addition, the TGI in the assay on SK-MEL-5 melanoma, in the assay on SR leukemia and in the assay with UACC-257 melanoma was greater than 100 µM throughout.
As to `CC/C(Cl)=N\OC(=O)Nc1ccc(C#N)cc1`, the TGI is 35.7 µM in the assay on A549 NSCLC; 9.32 µM with CAKI-1 renal; 8.54 µM with HOP-92 NSCLC; 30.6 µM in the assay on IGROV1 ovarian; 31.6 µM with KM12 colon; 32 µM in the assay with NCI-H23 lung. In addition, the TGI with OVCAR-3 ovarian was 32.7 µM; with OVCAR-8 ovarian, 30.7 µM; in the assay on PC-3 prostate it was 30.5 µM; with RPMI-8226 leukemia, 8.66 µM; in the assay with RXF 393 renal it was 21.4 µM; in the assay on SF-295 CNS, 33 µM. The TGI is 25.9 µM in the assay on SK-MEL-5 melanoma, 22.7 µM with SR leukemia and 29.8 µM in the assay with UACC-257 melanoma.
As for `Clc1nc2c(-c3cccs3)ncnc2n1Cc1ccccc1`, the TGI was greater than 100 µM in the assay on A549 NSCLC; greater than 21 µM with CAKI-1 renal; 62 µM in the assay with HOP-92 NSCLC; greater than 100 µM in the assay on IGROV1 ovarian; 37.5 µM in the assay on KM12 colon; greater than 100 µM with NCI-H23 lung. For the same molecule, the TGI in the assay with OVCAR-3 ovarian is 49.8 µM; in the assay on OVCAR-8 ovarian it was greater than 100 µM; in the assay with PC-3 prostate, greater than 76.4 µM; in the assay on RPMI-8226 leukemia it was 70.6 µM; in the assay with RXF 393 renal it was 51.2 µM; in the assay on SF-295 CNS, greater than 100 µM. In addition, the TGI in the assay with SK-MEL-5 melanoma is greater than 100 µM; in the assay on SR leukemia, greater than 100 µM; with UACC-257 melanoma, 61.9 µM.
As to `Cc1cccc2c1C(=O)C(C1OC(=O)c3ccccc31)C2` (stereo not given), the TGI with A549 NSCLC, in the assay on CAKI-1 renal, in the assay on HOP-92 NSCLC, in the assay with IGROV1 ovarian, in the assay on KM12 colon and in the assay on NCI-H23 lung was greater than 100 µM each time. In addition, the TGI with OVCAR-3 ovarian, in the assay on OVCAR-8 ovarian, with PC-3 prostate, with RPMI-8226 leukemia, in the assay with RXF 393 renal and with SF-295 CNS was greater than 100 µM in each case. The TGI with SK-MEL-5 melanoma, in the assay with SR leukemia and in the assay with UACC-257 melanoma was greater than 100 µM in each case.
Take `C[C@@H]1CCC2[C@@H](C)C(=O)O[C@@H]3C4C[C@@H]1[C@@]23OO[C@@]4(C)O` (stereo not given in full): the TGI with A549 NSCLC, with CAKI-1 renal, in the assay on HOP-92 NSCLC, in the assay on IGROV1 ovarian, in the assay on KM12 colon and in the assay with NCI-H23 lung was greater than 100 µM throughout. The TGI with OVCAR-3 ovarian, in the assay on OVCAR-8 ovarian, with PC-3 prostate, with RPMI-8226 leukemia, in the assay on RXF 393 renal and in the assay on SF-295 CNS was greater than 100 µM throughout. For the same molecule, the TGI with SK-MEL-5 melanoma, in the assay on SR leukemia and in the assay with UACC-257 melanoma was greater than 100 µM throughout.
